# Measured values reported in patent US8609862B2, “Use of an adrenal hormone-modifying agent” (Novartis AG, priority 2010, dated 2013).
# pIC50: −log10 of the molar value.
# How the values were obtained:
# Rat CYP11B1 = target: T1, Rat CYP11B1 (Rattus norvegicus, UniProt P15393); assay: In vitro rat CYP11B1 assay; format: biochemical; settings: V79-4 cell homogenate, 11-deoxycorticosterone to corticosterone, SPA
# T1 construct: made in house; host or cells: V79-4 cell line #259 (stably selected with geneticin and hygromycin); sonicated homogenate, 500 x g supernatant
# T1 sequence (P15393 25-499): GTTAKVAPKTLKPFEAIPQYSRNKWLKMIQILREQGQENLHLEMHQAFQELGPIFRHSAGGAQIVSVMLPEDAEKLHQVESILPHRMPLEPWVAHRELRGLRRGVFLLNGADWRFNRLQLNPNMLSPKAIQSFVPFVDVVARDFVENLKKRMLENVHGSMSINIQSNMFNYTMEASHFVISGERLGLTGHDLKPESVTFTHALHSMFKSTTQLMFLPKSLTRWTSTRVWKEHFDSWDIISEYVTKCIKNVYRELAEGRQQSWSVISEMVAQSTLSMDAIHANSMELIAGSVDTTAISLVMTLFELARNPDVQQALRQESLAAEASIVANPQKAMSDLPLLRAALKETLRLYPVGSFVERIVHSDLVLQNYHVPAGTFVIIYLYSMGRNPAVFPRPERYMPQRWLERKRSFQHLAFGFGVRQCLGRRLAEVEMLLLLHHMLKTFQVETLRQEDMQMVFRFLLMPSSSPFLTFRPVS
# Text: Complete EDTA-free protease inhibitor tablets were obtained from Roche Applied Science (Indianapolis, Ind.). Dulbecco's modified Eagle medium (DMEM), antibiotic, geneticin, hygromycin, and fetal bovine serum (FBS) were products of Invitrogen (Carlsbad, Calif.). NADPH Regeneration Solution A and Solution B were purchased from BD Biosciences Clontech (Palo Alto, Calif.). Anti-sheep PVT SPA beads and [1,2,6,7-^3H(N)]corticosterone were acquired from Amersham (Piscataway, N.J.) and PerkinElmer (Boston, Mass.), respectively.
# For enzyme preparation, #259 cells were seeded in 150 mm dishes in double-selection medium. Following 2 days of growth, cells were washed once with PBS, scraped and collected in PBS, and centrifuged at 1,300 rpm for 6 min. […] The sonication procedure was repeated 3 more times, with a 5 min rest on ice between sonications. The sonicated material was then spun at 500×g for 4 min to remove unbroken cells. The supernatant was brought to a final glycerol concentration of 5%, flash-frozen in liquid nitrogen, and stored at −80° C.
# The CYP11B1 assays were performed in 96-well U-bottom non-tissue-culture-treated plates. […] Plates were then centrifuged at 2,400 rpm for 6 min, and 50 μl of supernatant was removed for measurement of corticosterone content by scintillation proximity assay (SPA).
# Measurement of corticosterone was performed using a 96-well plate format. […] Anti-sheep PVT SPA beads (50 μl) were then added to each well and incubated overnight at room temperature prior to counting in a Microbeta plate counter. The amount of corticosterone in each sample was calculated by comparing with a standard curve generated using known quantities of the hormone.
# Full concentration-response curves of an inhibitor were performed at least 3 times. The IC50 values were derived using a non-linear least squares curve-fitting program from IDBS XLfit.
# CYP11B1 = target: T2, CYP11B1 (Rattus norvegicus, UniProt P15393); assay: In vivo CYP11B1 assay: plasma corticosterone concentration (PCC) in ACTH-infused conscious rats; settings: ACTH infusion; for % Reduction from baseline PCC t = 1 h: 1 h after dosing; for % Reduction from baseline PCC 8 h: 8 h after dosing
# T2 construct: from tissue; host or cells: whole animal: conscious male Sprague-Dawley rats under ACTH infusion (the adrenal gland as site of the enzyme comes from the background, b5)
# T2 sequence (P15393 25-499): T1 sequence (P15393 25-499)
# Protocol: (§1) The in vivo effects of compounds on plasma aldosterone concentration (PAC) and plasma glucocorticoid (corticosterone) concentration (PCC) were evaluated in conscious rats.
# (§2) Male Sprague-Dawley rats (˜400-600 g body weight) were surgically instrumented with a femoral arterial and venous catheter. The catheters were exteriorized from the lower back through a stainless steel spring and swivel system that enabled the rats to move freely at all times. Rats were allowed at least one week to recover from the surgery before initiating the experiments.
# (§3) On the morning of the experiment, a pretreatment blood sample was collected on heparin from the arterial catheter. The blood samples were spun in a refrigerated centrifuge to generate plasma. The plasma was stored frozen at −70° C. until the later measurement of PAC and PCC (by radioimmunoassay). Adrenocorticotropic hormone (ACTH(1-24), referred to herein as ACTH) was then administered as an intravenous (i.v.) bolus (100 ng/kg) followed by a continuous i.v. infusion (30 ng/kg/min) for 9 hours. After one hour of infusion, a baseline (time 0) blood sample was withdrawn from the arterial catheter and processed and stored as described above. The rats were then dosed (typically 0.01 to 100 mg/kg) with the test compound p.o. by oral gavage or parenterally via the arterial catheter (i.a.). Compounds were formulated in an appropriate vehicle (e.g., water (p.o.) or saline (i.a.)) at a physiologically compatible volume (typically 1-2 ml/kg). Additional blood samples were withdrawn at 0.083 (i.a. only), 0.25, 0.5, 1, 2, 3, 4, 5, 6, 7, 8, and 24 hours after dosing with compound and processed and stored as above for later determination of PAC, PCC, and plasma compound concentration (by LC/MS/MS). Oral bioavailability and traditional pharmacokinetic (PK) parameters were estimated from the plasma compound concentrations.
# (§4) Based on the plasma compound concentration at each dose, the PK/PD (pharmacodynamic) profiles (reduction of PAC and PCC) of each compound were determined.
# CYP11B2 = target: T3, CYP11B2 (Rattus norvegicus, UniProt P30099); assay: In vivo assay: plasma aldosterone concentration (PAC) in ACTH-infused conscious rats; settings: ACTH infusion; for % Reduction from baseline PAC t = 1 h: 1 h after dosing; for % Reduction from baseline PAC 8 h: 8 h after dosing
# T3 construct: from tissue; host or cells: whole animal: conscious male Sprague-Dawley rats under ACTH infusion (the adrenal gland as site of the enzyme comes from the background, b5)
# T3 sequence (P30099 35-510): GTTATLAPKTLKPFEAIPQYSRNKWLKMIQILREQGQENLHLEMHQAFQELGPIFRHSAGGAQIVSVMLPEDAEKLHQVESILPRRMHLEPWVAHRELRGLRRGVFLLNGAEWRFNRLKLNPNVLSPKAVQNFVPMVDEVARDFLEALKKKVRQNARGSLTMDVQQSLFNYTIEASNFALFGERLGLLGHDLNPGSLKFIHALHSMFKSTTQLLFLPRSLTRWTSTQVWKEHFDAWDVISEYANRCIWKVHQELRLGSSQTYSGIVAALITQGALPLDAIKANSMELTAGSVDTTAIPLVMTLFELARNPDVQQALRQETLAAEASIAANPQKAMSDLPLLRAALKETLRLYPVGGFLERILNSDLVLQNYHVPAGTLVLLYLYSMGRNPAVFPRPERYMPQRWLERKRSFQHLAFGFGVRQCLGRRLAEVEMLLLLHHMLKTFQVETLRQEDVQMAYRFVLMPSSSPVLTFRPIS
# Protocol: as §1, §2, §3, §4
compound,measurement,setting,value
"N#Cc1ccc(C2CCCCc3cncn32)c(Br)c1 (racemic) [3-bromo-4-(6,7,8,9-tetrahydro-5H-imidazo[1,5-a]azepin-5-yl)benzonitrile racemate, 3-bromo-4-(6,7,8,9-tetrahydro-5H-imidazo[1,5-a]azepin-5-yl)benzonitrile]",pIC50,Rat CYP11B1,9.00
same,% Reduction from baseline PCC t = 1 h,CYP11B1; 10 mg/kg p.o.,70%
same,% Reduction from baseline PCC 8 h,CYP11B1; 10 mg/kg p.o.,87%
same,% Reduction from baseline PAC t = 1 h,CYP11B2; 10 mg/kg p.o.,79%
same,% Reduction from baseline PAC 8 h,CYP11B2; 10 mg/kg p.o.,89%
"N#Cc1ccc(C2CCCCc3cncn32)c(-c2ccc(F)cc2)c1 (single isomer, unassigned) [4′-fluoro-6-(6,7,8,9-tetrahydro-5H-imidazo[1,5-a]azepin-5-yl)biphenyl-3-carbonitrile]",pIC50,Rat CYP11B1,9.52
same,% Reduction from baseline PCC t = 1 h,CYP11B1; 3 mg/kg i.a.,89%
same,% Reduction from baseline PCC 8 h,CYP11B1; 3 mg/kg i.a.,43%
same,% Reduction from baseline PAC t = 1 h,CYP11B2; 3 mg/kg i.a.,83%
same,% Reduction from baseline PAC 8 h,CYP11B2; 3 mg/kg i.a.,76%
"COc1ccc(CN(C)C(=O)C2(c3ccc(C#N)cc3Cl)CCc3cncn32)cc1 (stereo not drawn) [5-(2-chloro-4-cyanophenyl)-N-(4-methoxybenzyl)-N-methyl-6,7-dihydro-5H-pyrrolo[1,2-c]imidazole-5-carboxamide]",pIC50,Rat CYP11B1,8.70
same,% Reduction from baseline PCC t = 1 h,CYP11B1; 30 mg/kg i.a.,76%
same,% Reduction from baseline PCC 8 h,CYP11B1; 30 mg/kg i.a.,78%
same,% Reduction from baseline PAC t = 1 h,CYP11B2; 30 mg/kg i.a.,23%
same,% Reduction from baseline PAC 8 h,CYP11B2; 30 mg/kg i.a.,59%
